Experimental data taken from patent publication US20250312497A1, “METHOD OF TREATING PROSTATE CANCER” (Novartis AG, priority 2022, published 2025).
Several values for one entry are separate records, joined by “and”; a condition that tells them apart may be missing. Equal values may be shown once.

Test system: PSMA-positive mCRPC participants
Experiment: PSMAfore phase III: adverse events, serious adverse events, safety topics and deaths (safety set)
Type: in vivo, human
Details: DCO 2 Oct 2022
[1] = most common AEs (>10% in either arm)

O=C([O-])CN1CCN(CC(=O)[O-])CCN(CC(=O)NCC2CCC(C(=O)N[C@@H](Cc3ccc4ccccc4c3)C(=O)NCCCC[C@H](NC(=O)N[C@@H](CCC(=O)O)C(=O)O)C(=O)O)CC2)CCN(CC(=O)[O-])CC1.[177Lu+3] (stereo partly shown) [[177Lu]Lu-PSMA-617, lutetium (177Lu) vipivotide tetraxetan]
Fatal serious AEs: Fatal serious AEs: 1.8% in [177Lu]Lu-PSMA- | death during the study due to study indication: 4.4% | most frequent serious adverse event: urinary tract infection: 1.8% | on-treatment deaths due to Study indication: 0% | subjects who received at least one dose and died during the study: 18 (8%) n (%) | AEs leading to discontinuation, Treatment-related (ARDT prior to crossover): 1.8% | Grade≥3 AEs, Treatment-related (ARDT prior to crossover): 6.6% | Serious AEs, Treatment-related (ARDT prior to crossover): 2.2% | Anaemia [1]: 16.8% | Arthralgia [1]: 11.5% | Asthenia [1]: 23.9% | Back pain [1]: 7.1% | COVID-19 [1]: 11.1% | Constipation [1]: 15.5% | Decreased appetite [1]: 12.8% | Diarrhoea [1]: 12.4% | Dry mouth [1]: 44.7% | Fatigue [1]: 18.1% | Nausea [1]: 25.2% | On-treatment deaths: Number of subjects who died (safety set): 4 (1.8%) n (%) and 4 (1.8) n (%) | On-treatment deaths: Other (safety set): 4 (1.8) n (%) | On-treatment deaths: Study indication (safety set): 0 n (%) | AE preferred term: Anaemia (safety set, All Grades): 38 (16.8) n (%) | AE preferred term: Arthralgia (safety set, All Grades): 26 (11.5) n (%) | AE preferred term: Asthenia (safety set, All Grades): 54 (23.9) n (%) | AE preferred term: Back pain (safety set, All Grades): 16 (7.1) n (%) | AE preferred term: COVID-19 (safety set, All Grades): 25 (11.1) n (%) | AE preferred term: Constipation (safety set, All Grades): 35 (15.5) n (%) | AE preferred term: Decreased appetite (safety set, All Grades): 29 (12.8) n (%) | AE preferred term: Diarrhoea (safety set, All Grades): 28 (12.4) n (%) | AE preferred term: Dry mouth (safety set, All Grades): 101 (44.7) n (%) | AE preferred term: Fatigue (safety set, All Grades): 41 (18.1) n (%) | AE preferred term: Nausea (safety set, All Grades): 57 (25.2) n (%) | Adverse events (subjects with at least one event) (safety set, All Grades): 202 (89.4) n (%) | Adverse events leading to discontinuation (safety set, All Grades): 9 (4.0) n (%) | Adverse events leading to discontinuation, Treatment-related (safety set, All Grades): 4 (1.8) n (%) | Adverse events leading to dose adjustment (safety set, All Grades): 5 (2.2) n (%) | Adverse events leading to dose interruption (safety set, All Grades): 16 (7.1) n (%) | Adverse events requiring additional therapy (safety set, All Grades): 121 (53.5) n (%) | Adverse events, Treatment-related (safety set, All Grades): 170 (75.2) n (%) | Fatal serious adverse events (safety set, All Grades): 4 (1.8) n (%) | Fatal serious adverse events, Treatment-related (safety set, All Grades): 0 n (%) | Safety topic: Dry eye (safety set, All Grades): 6 (2.7) n (%) | Safety topic: Dry mouth (safety set, All Grades): 101 (44.7) n (%) | Safety topic: Fractures (safety set, All Grades): 3 (1.3) n (%) | Safety topic: Hepatotoxicity (safety set, All Grades): 20 (8.8) n (%) | Safety topic: Intracranial haemorrhage (safety set, All Grades): 2 (0.9) n (%) | Safety topic: Myelosuppression (safety set, All Grades): 56 (24.8) n (%) | Safety topic: QT prolongation (safety set, All Grades): 2 (0.9) n (%) | Safety topic: Radiotoxicity including inadvertent exposure (safety set, All Grades): 0 n (%) | Safety topic: Renal toxicity (safety set, All Grades): 11 (4.9) n (%) | Safety topic: Second primary malignancies (safety set, All Grades): 3 (1.3) n (%) | Serious AE preferred term: Anaemia (safety set, All Grades): 2 (0.9) n (%) | Serious AE preferred term: Haematuria (safety set, All Grades): 0 n (%) | Serious AE preferred term: Pain (safety set, All Grades): 1 (0.4) n (%) | Serious AE preferred term: Spinal cord compression (safety set, All Grades): 2 (0.9) n (%) | Serious AE preferred term: Urinary retention (safety set, All Grades): 1 (0.4) n (%) | Serious AE preferred term: Urinary tract infection (safety set, All Grades): 4 (1.8) n (%) | Serious adverse events (subjects with at least one event) (safety set, All Grades): 35 (15.5) n (%) | Serious adverse events, Treatment-related (safety set, All Grades): 5 (2.2) n (%) | AE preferred term: Anaemia (safety set, Grade >=3): 10 (4.4) n (%) | AE preferred term: Arthralgia (safety set, Grade >=3): 0 n (%) | AE preferred term: Asthenia (safety set, Grade >=3): 1 (0.4) n (%) | AE preferred term: Back pain (safety set, Grade >=3): 2 (0.9) n (%) | AE preferred term: COVID-19 (safety set, Grade >=3): 1 (0.4) n (%) | AE preferred term: Constipation (safety set, Grade >=3): 1 (0.4) n (%) | AE preferred term: Decreased appetite (safety set, Grade >=3): 0 n (%) | AE preferred term: Diarrhoea (safety set, Grade >=3): 0 n (%) | AE preferred term: Dry mouth (safety set, Grade >=3): 1 (0.4) n (%) | AE preferred term: Fatigue (safety set, Grade >=3): 0 n (%) | AE preferred term: Nausea (safety set, Grade >=3): 0 n (%) | Adverse events (subjects with at least one event) (safety set, Grade >=3): 53 (23.5) n (%) | Adverse events leading to discontinuation (safety set, Grade >=3): 6 (2.7) n (%) | Adverse events leading to discontinuation, Treatment-related (safety set, Grade >=3): 3 (1.3) n (%) | Adverse events leading to dose adjustment (safety set, Grade >=3): 1 (0.4) n (%) | Adverse events leading to dose interruption (safety set, Grade >=3): 9 (4.0) n (%) | Adverse events requiring additional therapy (safety set, Grade >=3): 34 (15.0) n (%) | Adverse events, Treatment-related (safety set, Grade >=3): 15 (6.6) n (%) | Fatal serious adverse events (safety set, Grade >=3): 4 (1.8) n (%) | Fatal serious adverse events, Treatment-related (safety set, Grade >=3): 0 n (%) | Safety topic: Dry eye (safety set, Grade >=3): 0 n (%) | Safety topic: Dry mouth (safety set, Grade >=3): 1 (0.4) n (%) | Safety topic: Fractures (safety set, Grade >=3): 1 (0.4) n (%) | Safety topic: Hepatotoxicity (safety set, Grade >=3): 8 (3.5) n (%) | Safety topic: Intracranial haemorrhage (safety set, Grade >=3): 1 (0.4) n (%) | Safety topic: Myelosuppression (safety set, Grade >=3): 19 (8.4) n (%) | Safety topic: QT prolongation (safety set, Grade >=3): 1 (0.4) n (%) | Safety topic: Radiotoxicity including inadvertent exposure (safety set, Grade >=3): 0 n (%) | Safety topic: Renal toxicity (safety set, Grade >=3): 2 (0.9) n (%) | Safety topic: Second primary malignancies (safety set, Grade >=3): 1 (0.4) n (%) | Serious AE preferred term: Anaemia (safety set, Grade >=3): 1 (0.4) n (%) | Serious AE preferred term: Haematuria (safety set, Grade >=3): 0 n (%) | Serious AE preferred term: Pain (safety set, Grade >=3): 1 (0.4) n (%) | Serious AE preferred term: Spinal cord compression (safety set, Grade >=3): 2 (0.9) n (%) | Serious AE preferred term: Urinary retention (safety set, Grade >=3): 1 (0.4) n (%) | Serious AE preferred term: Urinary tract infection (safety set, Grade >=3): 3 (1.3) n (%) | Serious adverse events (subjects with at least one event) (safety set, Grade >=3): 30 (13.3) n (%) | Serious adverse events, Treatment-related (safety set, Grade >=3): 4 (1.8) n (%) | On-treatment deaths: COVID-19 pneumonia (safety set, preferred term): 1 (0.4) n (%) | On-treatment deaths: Cardiac arrest (safety set, preferred term): 1 (0.4) n (%)
